Patent publication US11974990B2, “TXNIP-TRX complex inhibitors and methods of using the same” (City of Hope, priority 2018, dated 2024)
“Also recorded” adds a separate entry of the source.

Legend:
TNF-α mRNA = TNF-α mRNA expression (RT-PCR) in THP1 cells under high glucose; assay type: cell-based, human
Method: FIG. 8. […] High glucose induced TNF expression in THP1 cells. This HG induced TNF increase is alleviated by C1 in dose manner (1.25, 2.5 and 5 uM). Results shown are means±SE of triplet real-time PCRs. *:P=0.002 vs. HG only, by t tests; **:P=0.001 vs. HG only, by t tests.
FIGS. 9A-9B. FIG. 9A. […] THP1 cells were cultured in 25 mM glucose with the indicated concentrations of C1 for 72 h. Cell were collected for total RNA preparation. RT-PCR were performed and data shown are the mean+SEM from triplicates. Statistical analysis was performed using one-way ANOVA, *<0.0001. FIG. 9B. […] THP1 cells were cultured in 25 mM glucose and C1 (uM) as indicated for 72 hours and collected for total RNA preparation. RT-PCR was performed. Data shown are the mean+SEM from triplicates. Statistical analysis was performed using one-way ANOVA: *<0.02; **<0.0001.
RNA extraction and quantitative RT-PCR. RNA was extracted using the Direct-zol™ RNA MiniPrep Plus (Zymo Research). […] Diluted cDNA was quantified using real-time PCR performed with Power SYBR Green qPCR MasterMix (Applied Biosystem) and 7500 real-time PCR system (Applied Biosystems). […]
RNA extraction and quantitative RT-PCR. […] Diluted cDNA was quantified using real-time PCR performed with Power SYBR Green qPCR MasterMix (Applied Biosystem) and 7500 real-time PCR system (Applied Biosystems). […]

TXNIP-TRX complex = target: T1, TXNIP-TRX complex (Homo sapiens, UniProt Q9H3M7); test: Co-IP of TXNIP with TRX in THP1 monocytes treated with compounds under high glucose; assay type: cell-based
T1 construct: Co-immunoprecipitation (Co-IP) of TXNIP with TRX in THP 1 monocytes cells treated with compounds under high glucose condition; endogenous in cells; host or cells: THP1 human monocytes cultured in 25 mM glucose
T1 sequence (Q9H3M7 1-391): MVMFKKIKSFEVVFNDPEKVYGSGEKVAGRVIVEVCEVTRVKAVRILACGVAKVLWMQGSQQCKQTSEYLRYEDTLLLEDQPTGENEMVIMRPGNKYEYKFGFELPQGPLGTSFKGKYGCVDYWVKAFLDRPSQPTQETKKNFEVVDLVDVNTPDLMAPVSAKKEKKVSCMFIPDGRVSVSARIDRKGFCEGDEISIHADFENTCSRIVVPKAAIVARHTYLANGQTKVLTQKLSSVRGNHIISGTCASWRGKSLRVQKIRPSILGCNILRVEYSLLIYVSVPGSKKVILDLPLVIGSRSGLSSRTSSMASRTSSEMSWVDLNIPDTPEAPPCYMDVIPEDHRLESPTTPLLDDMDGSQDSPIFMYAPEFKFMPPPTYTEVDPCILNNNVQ
Method: FIGS. 4A-4B. Co-IP with anti-TRX in THP 1 cells treated with compounds under high glucose condition. THP1 cells were treated by 10 uM compounds over night, then glucose was added up to 25 mM. The cells were cultured for 72-96 h. Cell extracts were prepared using cell extract buffer (Thermo Fisher Scientific) and Co-IP were performed with mouse anti-TRX (abcam).
Assay 1: Co-immunoprecipitation (Co-IP) of TXNIP with TRX in THP 1 monocytes cells treated with compounds under high glucose condition. In this assay, we looked for compounds that can interfere with the interaction between TXNIP and TRX in THP-1 monocytes treated with HG. So here compounds are added to cells in culture. […] So we picked the candidates only if the results are repeatable.
Co-IP with compounds treated THP1 under high glucose condition. THP1 cells were treated with compounds (2.5 uM) overnight and glucose was add to 25 mM and culture for 3-5 days, then coIP were carried using co-IP protocol.
1. Transfer the cultured cells from the culture dish to a 15-mL conical tube. 2. Centrifuge at 500×g for 2 min at 4° C. and remove the supernatant. 3. Wash with ice-cold PBS and centrifuge at 500×g for 2 min at 4° C. Remove the supernatant. 4. Repeat Step 3 twice.
5. Resuspend the cell pellet in ice-cold cell lysis buffer (1 mL per 1×10^7 cells) and incubate on ice for 10 min. 6. Sonicate cells in ice bath three times for 5 second pulses each. 7. Centrifuge at 13,000×g at 4° C. for 10 min, and transfer the supernatant to a fresh tube. Store the tube on ice for further use, or for long storage at −80° C.
8. Resuspend the magnetic beads by pipetting up and down for several times. 9. Transfer 20 μL of bead slurry to a fresh tube. Place the tube in a magnetic separation rack […]. Carefully remove the supernatant once the solution is clear. 10. […]
Note: Pre-clearing the lysate is recommended to reduce the non-specific binding. However, if the protein is detected by western blotting, pre-clearing may not be necessary unless a contaminating protein is interfering with visualization of the protein of interest. […]

Structure (SMILES): CC(C)C(C(=O)O)N1C(=O)c2ccncc2C1=O (stereo not shown) [Compound C1, 2-(1,3-dioxo-1,3-dihydro-2H-pyrrolo[3,4-c]pyridin-2-yl)-3-methylbutanoic acid]
- TNF-α mRNA expression (TNF-α mRNA; THP1, 25 mM glucose, concentration range of C1, 72 h (FIG. 9B)): inhibits TNF-α mRNA expression; also recorded: lower levels of TNF-α mRNA
- HG-induced TNF expression (TNF-α mRNA; THP1, high glucose, C1 1.25, 2.5 and 5 uM (FIG. 8)): attenuate high glucose induced expression of inflammatory cytokine molecules
- TXNIP association/interaction with TRX (co-IP, blot with TXNIP antibody) (TXNIP-TRX complex; THP1, 25 mM glucose, 5 uM C1, 16-72 h time course, nuclear cell extracts): Inhibition of TXNIP-TRX interaction; also recorded: significantly reduced at 48 h
- HG-induced TXNIP-TRX co-IP band intensity (TXNIP-TRX complex; THP1 cells, compounds added to cells in culture overnight, glucose to 25 mM, 72-96 h, anti-TRX IP): inhibit high glucose-induced TXNIP-TRX co-immunoprecipitation; also recorded: reproducibly shows a reduction in the HG-induced band
